According to patent US20210053957A1, “HERBICIDAL COMPOUNDS” (SYNGENTA PARTICIPATIONS AG, priority 2018, published 2021):

Experiments:
Assay in all cases: Post-emergence efficacy, glasshouse spray test
Assay type in all cases: in vivo
Lolium perenne (LOLPE) = settings: Lolium perenne, post-emergence, 312 h, evaluated after 13 days, read-out: Control of weed species after post-emergence application, LOLPE (100=total damage to plant; 0=no damage to plant); for pest or weed control at 500 g/ha: Application Rate 500 g/Ha
Protocol: (§1) Seeds of a variety of test species were sown in standard soil in pots. After cultivation for 14 days (post-emergence) under controlled conditions in a glasshouse (at 24/16° C. day/night; 14 hours light; 65% humidity), the plants were sprayed with an aqueous spray solution derived from the dissolution of the technical active ingredient formula (I) in a small amount of acetone and a special solvent and emulsifier mixture referred to as IF50 (11.12% Emulsogen EL360 TM+44.44% N-methyl pyrrolidone+44.44% Dowanol DPM glycolether), to create a 50 g/l solution which was then diluted to required concentration using 0.25% or 1% Empicol ESC70 (Sodium lauryl ether sulphate)+1% ammonium sulphate as diluent. The test plants were then grown in a glasshouse under controlled conditions (at 24/16° C., day/night; 14 hours light; 65% humidity) and watered twice daily. After 13 days the test was evaluated (100=total damage to plant; 0=no damage to plant).
(§2) Ipomoea hederacea (IPOHE), Euphorbia heterophylla (EPHHL), Chenopodium album (CHEAL), Amaranthus palmeri (AMAPA), Lolium perenne (LOLPE), Digitaria sanguinalis (DIGSA), Eleusine indica (ELEIN), Echinochloa crus-galli (ECHCG), Setaia fabei (SETFA)

[1] = system: Ipomoea hederacea (IPOHE); settings: Ipomoea hederacea, post-emergence, 312 h, evaluated after 13 days, read-out: Control of weed species after post-emergence application, IPOHE (100=total damage to plant; 0=no damage to plant); for pest or weed control at 500 g/ha: Application Rate 500 g/Ha
Protocol: as §1, §2

[2] = system: Amaranthus palmeri (AMAPA); settings: Amaranthus palmeri, post-emergence, 312 h, evaluated after 13 days, read-out: Control of weed species after post-emergence application, AMAPA (100=total damage to plant; 0=no damage to plant); for pest or weed control at 500 g/ha: Application Rate 500 g/Ha
Protocol: as §1, §2

Eleusine indica (ELEIN) = settings: Eleusine indica, post-emergence, 312 h, evaluated after 13 days, read-out: Control of weed species after post-emergence application, ELEIN (100=total damage to plant; 0=no damage to plant); for pest or weed control at 500 g/ha: Application Rate 500 g/Ha
Protocol: as §1, §2

[3] = system: Digitaria sanguinalis (DIGSA); settings: Digitaria sanguinalis, post-emergence, 312 h, evaluated after 13 days, read-out: Control of weed species after post-emergence application, DIGSA (100=total damage to plant; 0=no damage to plant); for pest or weed control at 500 g/ha: Application Rate 500 g/Ha
Protocol: as §1, §2

[4] = system: Echinochloa crus-galli (ECHCG); settings: Echinochloa crus-galli, post-emergence, 312 h, evaluated after 13 days, read-out: Control of weed species after post-emergence application, ECHCG (100=total damage to plant; 0=no damage to plant); for pest or weed control at 500 g/ha: Application Rate 500 g/Ha
Protocol: as §1, §2

[5] = system: Chenopodium album (CHEAL); settings: Chenopodium album, post-emergence, 312 h, evaluated after 13 days, read-out: Control of weed species after post-emergence application, CHEAL (100=total damage to plant; 0=no damage to plant); for pest or weed control at 500 g/ha: Application Rate 500 g/Ha
Protocol: as §1, §2

Setaia fabei (SETFA) = settings: Setaria faberi, post-emergence, 312 h, evaluated after 13 days, read-out: Control of weed species after post-emergence application, SETFA (100=total damage to plant; 0=no damage to plant); for pest or weed control at 500 g/ha: Application Rate 500 g/Ha
Protocol: as §1, §2

COc1csc(-c2cc[n+](CCS(=O)(=O)[O-])nc2)n1 [Compound A26]
pest or weed control at 500 g/ha (Lolium perenne (LOLPE)): 30%
pest or weed control at 500 g/ha [1]: 40%
pest or weed control at 500 g/ha [2]: 20%
pest or weed control at 500 g/ha (Eleusine indica (ELEIN)): 40%
pest or weed control at 500 g/ha [3]: 30%
pest or weed control at 500 g/ha [4]: 20%
pest or weed control at 500 g/ha [5]: 40%
pest or weed control at 500 g/ha (Setaia fabei (SETFA)): 40%

COC(=O)CCC[n+]1ccc(-c2nccs2)cn1 [Compound A114]
pest or weed control at 500 g/ha (Lolium perenne (LOLPE)): 30%
pest or weed control at 500 g/ha [1]: 10%
pest or weed control at 500 g/ha [2]: 100%
pest or weed control at 500 g/ha (Eleusine indica (ELEIN)): 90%
pest or weed control at 500 g/ha [3]: 70%
pest or weed control at 500 g/ha [4]: 40%
pest or weed control at 500 g/ha [5]: 60%
pest or weed control at 500 g/ha (Setaia fabei (SETFA)): 50%

O=S(=O)([O-])CC[n+]1ccc(-c2ncc(Cl)s2)cn1 [Compound A44]
pest or weed control at 500 g/ha (Lolium perenne (LOLPE)): 30%
pest or weed control at 500 g/ha [1]: 60%
pest or weed control at 500 g/ha [2]: 100%
pest or weed control at 500 g/ha (Eleusine indica (ELEIN)): 50%
pest or weed control at 500 g/ha [3]: 50%
pest or weed control at 500 g/ha [4]: 30%
pest or weed control at 500 g/ha (Setaia fabei (SETFA)): 60%

Cc1coc(-c2cc[n+](CCC(=O)O)nc2)n1 [Compound A55]
pest or weed control at 500 g/ha (Lolium perenne (LOLPE)): 70%
pest or weed control at 500 g/ha [1]: 20%
pest or weed control at 500 g/ha [2]: 100%
pest or weed control at 500 g/ha (Eleusine indica (ELEIN)): 100%
pest or weed control at 500 g/ha [3]: 100%
pest or weed control at 500 g/ha [4]: 100%
pest or weed control at 500 g/ha [5]: 80%
pest or weed control at 500 g/ha (Setaia fabei (SETFA)): 100%

COC(=O)C[n+]1ccc(-c2ncco2)cn1 [Compound A66]
pest or weed control at 500 g/ha (Lolium perenne (LOLPE)): 20%
pest or weed control at 500 g/ha [1]: 10%
pest or weed control at 500 g/ha [2]: 50%
pest or weed control at 500 g/ha (Eleusine indica (ELEIN)): 90%
pest or weed control at 500 g/ha [3]: 60%
pest or weed control at 500 g/ha [4]: 70%
pest or weed control at 500 g/ha [5]: 60%
pest or weed control at 500 g/ha (Setaia fabei (SETFA)): 70%

Cc1nsc(-c2cc[n+](CCS(=O)(=O)[O-])nc2)c1C [Compound A54, 2-[4-(3,4-dimethylisothiazol-5-yl)pyridazin-1-ium-1-yl]ethanesulfonate]
pest or weed control at 500 g/ha (Lolium perenne (LOLPE)): 60%
pest or weed control at 500 g/ha [1]: 10%
pest or weed control at 500 g/ha [2]: 80%
pest or weed control at 500 g/ha (Eleusine indica (ELEIN)): 80%
pest or weed control at 500 g/ha [3]: 90%
pest or weed control at 500 g/ha [4]: 70%
pest or weed control at 500 g/ha [5]: 50%
pest or weed control at 500 g/ha (Setaia fabei (SETFA)): 70%

CCOP(=O)(CC[n+]1ccc(-c2ncco2)cn1)OCC [Compound A75]
pest or weed control at 125 g/ha (Lolium perenne (LOLPE); Application Rate 125 g/Ha): 0%
pest or weed control at 125 g/ha ([1]; Application Rate 125 g/Ha): 0%
pest or weed control at 125 g/ha ([2]; Application Rate 125 g/Ha): 0%
pest or weed control at 125 g/ha (Eleusine indica (ELEIN); Application Rate 125 g/Ha): 0%
pest or weed control at 125 g/ha ([3]; Application Rate 125 g/Ha): 10%
pest or weed control at 125 g/ha ([4]; Application Rate 125 g/Ha): 0%
pest or weed control at 125 g/ha ([5]; Application Rate 125 g/Ha): 40%
pest or weed control at 125 g/ha (Setaia fabei (SETFA); Application Rate 125 g/Ha): 0%

O=C(O)CC[n+]1ccc(-c2nc(Cl)cs2)cn1 [Compound A46]
pest or weed control at 500 g/ha (Lolium perenne (LOLPE)): 40%
pest or weed control at 500 g/ha [1]: 50%
pest or weed control at 500 g/ha (Eleusine indica (ELEIN)): 60%
pest or weed control at 500 g/ha [3]: 60%
pest or weed control at 500 g/ha [4]: 80%
pest or weed control at 500 g/ha [5]: 70%
pest or weed control at 500 g/ha (Setaia fabei (SETFA)): 60%

O=S(=O)([O-])CC[n+]1ccc(-c2ccno2)cn1 [Compound A79]
pest or weed control at 500 g/ha (Lolium perenne (LOLPE)): 70%
pest or weed control at 500 g/ha [1]: 80%
pest or weed control at 500 g/ha [2]: 100%
pest or weed control at 500 g/ha (Eleusine indica (ELEIN)): 100%
pest or weed control at 500 g/ha [3]: 90%
pest or weed control at 500 g/ha [4]: 80%
pest or weed control at 500 g/ha [5]: 90%
pest or weed control at 500 g/ha (Setaia fabei (SETFA)): 90%
